Each structure is given as a SMILES string. “And” between values parts separate entries of the source, which are not always exact repeats. Identical values can stand only once. Inconclusive results and toxic doses are left out. Peptide text beside a SMILES is read from it. * marks the point of attachment. Cbz = O=C(OCc1ccccc1)*

This test deals with P388 leukemia ip, CD2F1 mice, survival T/C. The test can be described thus: NCI In Vivo Anticancer Drug Screen. Data for tumor model P388 Leukemia (intraperitoneal) in CD2F1 (CDF1) mice. Particulars: endpoint: median survival time, higher = longer survival. In a few lines:
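Mice carrying the transplanted tumor received test compound or vehicle. Survival was recorded in each group, and the value is the treated-group measurement divided by that of the vehicle-treated control group.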

The mark [1] stands for this setting: dose: 50.0 mg/kg/injection, schedule: Q01DX009 (ip), vehicle: Klucel (hydroxypropylcellulose) (HPC).
The mark [2] stands for this setting: dose: 100.0 mg/kg/injection, schedule: Q01DX009 (ip), vehicle: Klucel (hydroxypropylcellulose) (HPC).
Where [3] appears, read: dose: 50.0 mg/kg/injection, schedule: Q01DX009 (ip), vehicle: saline with Tween-80.
Where [4] appears, read: dose: 100.0 mg/kg/injection, schedule: Q01DX009 (ip), vehicle: saline with Tween-80.
[5] abbreviates: dose: 200.0 mg/kg/injection, schedule: Q01DX009 (ip), vehicle: saline with Tween-80.
[6] abbreviates: dose: 12.5 mg/kg/injection, schedule: Q01DX005 (ip), vehicle: saline with Tween-80.
Setting [7] is: dose: 25.0 mg/kg/injection, schedule: Q01DX005 (ip), vehicle: saline with Tween-80.
Setting [8] is: dose: 50.0 mg/kg/injection, schedule: Q01DX005 (ip), vehicle: saline with Tween-80.
[9] abbreviates: dose: 200.0 mg/kg/injection, schedule: Q01DX005 (ip), vehicle: saline with Tween-80.
[10] abbreviates: dose: 100.0 mg/kg/injection, schedule: Q01DX005 (ip), vehicle: saline with Tween-80.

As for `O=C1NC(c2ccccc2)(c2ccccc2)C(=O)N1CN1CCc2ccccc2C1`, the T/C is, setting by setting: (dose: 60.0 mg/kg/injection, schedule: Q01DX005 (ip), vehicle: Klucel (hydroxypropylcellulose) (HPC)) 90 % of control; (dose: 120.0 mg/kg/injection, schedule: Q01DX005 (ip), vehicle: Klucel (hydroxypropylcellulose) (HPC)) 91 % of control; (dose: 240.0 mg/kg/injection, schedule: Q01DX005 (ip), vehicle: Klucel (hydroxypropylcellulose) (HPC)) 90 % of control.
With `O=C(NCc1ccc(Cl)cc1)OCc1c2ccccc2cc2ccccc12`, the T/C by setting is: under setting [1], 95 % of control; under setting [2], 93 % of control.
With `COc1ccc2c(c1)c(OC)c(CC(O)C(C)(C)O)c(=O)n2C` (stereo not drawn), the T/C is, setting by setting: (dose: 110.0 mg/kg/injection, schedule: Q01DX001 (ip), vehicle: Klucel (hydroxypropylcellulose) (HPC)) 96 % of control; (dose: 220.0 mg/kg/injection, schedule: Q01DX001 (ip), vehicle: Klucel (hydroxypropylcellulose) (HPC)) 106 % of control; (dose: 440.0 mg/kg/injection, schedule: Q01DX001 (ip), vehicle: Klucel (hydroxypropylcellulose) (HPC)) 110 % of control.
In the case of `CCCCCCCCCCCCCCCCS(=O)(=O)CCO`, the T/C by setting is: under setting [3], 95 % of control; under setting [4], 90 % of control; under setting [5], 86 % of control.
Consider `CCCCCC(=O)NCC(=O)OC`, for which the T/C is 100 % of control (dose: 50.0 mg/kg/injection, schedule: Q01DX005 (ip), vehicle: saline); 101 % of control (dose: 100.0 mg/kg/injection, schedule: Q01DX005 (ip), vehicle: saline); 100 % of control (dose: 200.0 mg/kg/injection, schedule: Q01DX005 (ip), vehicle: saline).
On to `O=c1[nH][nH]c2c([N+](=O)[O-])ccc(F)c12`, for which the T/C runs as follows: (dose: 12.5 mg/kg/injection, schedule: Q01DX009 (ip), vehicle: Klucel (hydroxypropylcellulose) (HPC)) 100 % of control; (dose: 25.0 mg/kg/injection, schedule: Q01DX009 (ip), vehicle: Klucel (hydroxypropylcellulose) (HPC)) 101 % of control; under setting [1], 110 % of control.
In the case of `CCCCOc1cccc2c(NCCCCCCCCNc3c4ccccc4nc4c(OCCCC)cccc34)c3ccccc3nc12`, the T/C was 107 % of control (dose: 0.62 mg/kg/injection, schedule: Q## X009 (ip), vehicle: lactic acid); 99 % of control (dose: 1.25 mg/kg/injection, schedule: Q## X009 (ip), vehicle: lactic acid); 99 % of control (dose: 2.5 mg/kg/injection, schedule: Q## X009 (ip), vehicle: lactic acid); 106 % of control (dose: 5.0 mg/kg/injection, schedule: Q## X009 (ip), vehicle: lactic acid); 91 % of control (dose: 10.0 mg/kg/injection, schedule: Q## X009 (ip), vehicle: lactic acid).
Regarding `CCCCCCCCCCCCCCCCCC(=O)NC(Cc1ccc(N(CCCl)CCCl)cc1)C(=O)O` (stereo not drawn), the T/C is, setting by setting: (dose: 1.88 mg/kg/injection, schedule: Q01DX009 (ip), vehicle: saline) 159 % of control; (dose: 3.75 mg/kg/injection, schedule: Q01DX009 (ip), vehicle: saline) 172 % of control; (dose: 3.75 mg/kg/injection, schedule: Q03HX008 (ip), vehicle: saline) 155 % of control; (dose: 7.5 mg/kg/injection, schedule: Q01DX009 (ip), vehicle: saline) 236 % of control; (dose: 7.5 mg/kg/injection, schedule: Q03HX008 (ip), vehicle: saline) 190 % of control; (dose: 15.0 mg/kg/injection, schedule: Q01DX009 (ip), vehicle: saline) 277 % of control. In addition, the T/C (dose: 15.0 mg/kg/injection, schedule: Q03HX008 (ip), vehicle: saline) was 225 % of control.
Regarding `CCN(CC)CCNC1=C(Cl)C(=O)c2ccccc2C1=O`, the T/C (dose: 1.56 mg/kg/injection, schedule: Q01DX009 (ip), vehicle: saline) is 95 % of control; the T/C (dose: 3.13 mg/kg/injection, schedule: Q01DX009 (ip), vehicle: saline) is 96 % of control; the T/C (dose: 6.25 mg/kg/injection, schedule: Q01DX009 (ip), vehicle: saline) was 96 % of control; the T/C (dose: 12.5 mg/kg/injection, schedule: Q01DX009 (ip), vehicle: distilled water + Tween-80) was 100 % of control; the T/C (dose: 12.5 mg/kg/injection, schedule: Q01DX009 (ip), vehicle: saline) is 101 % of control.
`CCOC(=O)N1NC(=O)CC1(C)C`: the T/C is 95 % of control (dose: 100.0 mg/kg/injection, schedule: Q01DX001 (ip), vehicle: saline); 100 % of control (dose: 200.0 mg/kg/injection, schedule: Q01DX001 (ip), vehicle: saline); 90 % of control (dose: 400.0 mg/kg/injection, schedule: Q01DX001 (ip), vehicle: saline).
With `O=CC1C2C=CCC12` (stereo not drawn), the T/C reads like this: under setting [4], 113 % of control; under setting [5], 118 % of control; (dose: 400.0 mg/kg/injection, schedule: Q01DX009 (ip), vehicle: saline with Tween-80) 113 % of control.
As for `Clc1ncnc2c1ncn2C1C=CC=CC=C1`, the T/C is 90 % of control (dose: 50.0 mg/kg/injection, schedule: Q01DX005 (ip), vehicle: Klucel (hydroxypropylcellulose) (HPC)); 92 % of control (dose: 100.0 mg/kg/injection, schedule: Q01DX005 (ip), vehicle: Klucel (hydroxypropylcellulose) (HPC)); 91 % of control (dose: 200.0 mg/kg/injection, schedule: Q01DX005 (ip), vehicle: Klucel (hydroxypropylcellulose) (HPC)).
Take `CCCOC(=O)C1(CCl)CCC(=O)O1` (stereo not drawn): the T/C is 101 % of control under setting [1]; 103 % of control under setting [2]; 103 % of control (dose: 200.0 mg/kg/injection, schedule: Q01DX009 (ip), vehicle: Klucel (hydroxypropylcellulose) (HPC)).
For the compound `CN=C(NC#N)NCCSCc1ccc2ccccc2n1`, the T/C reads like this: (dose: 50.0 mg/kg/injection, schedule: Q01DX005 (ip), vehicle: distilled water + Tween-80 + alcohol) 115 % of control; (dose: 100.0 mg/kg/injection, schedule: Q01DX005 (ip), vehicle: distilled water + Tween-80 + alcohol) 94 % of control.
As to `CCCC(=O)C1C(c2ccccc2)CC(=O)C(CC)C1c1ccccc1` (stereo not drawn), the T/C was 90 % of control under setting [6]; 95 % of control under setting [7]; 88 % of control and 90 % of control under setting [8]; 88 % of control under setting [9].
As to `CC1(C)OC2CC(=O)OCC23C1CC(O)C1(C)C3CCC2(C)C(c3ccoc3)OC(=O)C3OC321` (stereo not drawn), the T/C (dose: 0.75 mg/kg/injection, schedule: Q01DX009 (ip), vehicle: saline + alcohol) was 99 % of control; the T/C (dose: 1.5 mg/kg/injection, schedule: Q01DX009 (ip), vehicle: saline + alcohol) was 99 % of control; the T/C (dose: 3.0 mg/kg/injection, schedule: Q01DX009 (ip), vehicle: saline + alcohol) is 97 % of control; the T/C (dose: 6.0 mg/kg/injection, schedule: Q01DX009 (ip), vehicle: saline + alcohol) is 97 % of control; the T/C (dose: 100.0 mg/kg/injection, schedule: Q04DX002 (ip), vehicle: saline with Tween-80) is 103 % of control and 98 % of control; the T/C (dose: 200.0 mg/kg/injection, schedule: Q04DX002 (ip), vehicle: saline with Tween-80) was 101 % of control and 100 % of control. Moreover, the T/C (dose: 400.0 mg/kg/injection, schedule: Q04DX002 (ip), vehicle: saline with Tween-80) is 91 % of control and 92 % of control.
Turning to `Cc1cc(Nc2ccc(N(C)C)cc2)c2cc(N(C)C)ccc2n1`, the T/C under setting [3] is 96 % of control and the T/C under setting [4] was 107 % of control.
Regarding `CC(=O)OCC1OC(OC(C)=O)C(NC(=S)NCC(=O)c2ccc(C)cc2)C(OC(C)=O)C1OC(C)=O` (stereo not drawn), the T/C runs as follows: under setting [8], 99 % of control; under setting [10], 100 % of control; under setting [9], 101 % of control.
The corresponding values for `O=C(NC(Cc1ccc(O)cc1)C(=O)NC(Cc1ccccc1)C(=O)O)OCc1ccccc1` (stereo not drawn) (Cbz-Tyr-Phe-OH; configuration not given here) are 102 % of control, 106 % of control and 104 % of control.
As for `COc1ccc2c(c1)C(=O)CC(COS(=O)(=O)c1ccc(C)cc1)C2` (stereo not drawn), the T/C under setting [3] was 107 % of control, the T/C under setting [4] was 101 % of control and the T/C under setting [5] is 99 % of control.
Regarding `Cc1c(N=Nc2cccc(F)c2)c(-c2ccccc2)nn1C(N)=S`, the T/C is 95 % of control under setting [6], 95 % of control under setting [7] and 101 % of control under setting [8].

The values are drawn from PubChem BioAssay AID330 (DTP/NCI, 2004).
